According to ChEMBL document CHEMBL1136387, “Unique spirocyclopiperazinium salt. Part 2: synthesis and structure-activity relationship of dispirocyclopiperazinium salts as analgesics” (Bioorg Med Chem Lett, 2003):

Assays:
Mus musculus [1] = assay: (§1) In vivo analgesic activity evaluated by using acetic acid writhing test in mice administered subcutaneously at a dose of 2 mg/kg; type: functional; settings: sc, route subcutaneous
Mus musculus [2] = assay: as §1; type: functional; settings: sc, route subcutaneous; remark: listed apart in the source
Mus musculus [3] = organism: Mus musculus; assay: […]; type: functional; settings: sc, route subcutaneous
[4] = Toxicity in mice administered subcutaneously; settings: mouse, in vivo, sc
Mus musculus [5] = assay: (§2) In vivo analgesic activity evaluated by using acetic acid writhing test in mice administered subcutaneously at a dose of 0.2 mg/kg; type: functional; settings: sc, route subcutaneous
Mus musculus [6] = assay: as §2; type: functional; settings: sc, route subcutaneous; remark: listed apart in the source
Mus musculus [7] = assay: In vivo analgesic activity evaluated by using acetic acid writhing test in mice administered subcutaneously at a dose of 0.05 mg/kg; type: functional; settings: sc, route subcutaneous
Mus musculus [8] = assay: (§3) In vivo analgesic activity evaluated by using acetic acid writhing test in mice administered subcutaneously at a dose of 10 mg/kg; type: functional; settings: sc, route subcutaneous
Mus musculus [9] = assay: as §3; type: functional; settings: sc, route subcutaneous; remark: listed apart in the source
Mus musculus [10] = assay: (§4) In vivo analgesic activity evaluated by using acetic acid writhing test in mice administered subcutaneously at a dose of 5 mg/kg; type: functional; settings: sc, route subcutaneous
Mus musculus [11] = assay: as §4; type: functional; settings: sc, route subcutaneous; remark: listed apart in the source
Mus musculus [12] = assay: In vivo analgesic activity evaluated by using acetic acid writhing test in mice administered subcutaneously at a dose of 20 mg/kg; type: functional; settings: sc, route subcutaneous
Mus musculus [13] = assay: In vivo analgesic activity evaluated by using acetic acid writhing test in mice administered subcutaneously at a dose of […]; type: functional; settings: sc, dose 2.5 mg/kg, route subcutaneous
Mus musculus [14] = assay: (§5) In vivo analgesic activity evaluated by using acetic acid writhing test in mice administered subcutaneously at a dose of 0.02 mg/kg; type: functional; settings: sc, route subcutaneous
Mus musculus [15] = assay: as §5; type: functional; settings: sc, route subcutaneous; remark: listed apart in the source

Compound: C(CCCN1CC[N+]2(CCCC2)CC1)CCN1CC[N+]2(CCCC2)CC1
- inhibition in vivo at 2 mg/kg (Mus musculus [1]): 56.6%
- inhibition in vivo at 2 mg/kg (Mus musculus [2]): 72.4%

Compound: CCCCCCCCCCCCCCCCCCOC(CN1CC[N+]2(CCCC2)CC1)CN1CC[N+]2(CCCC2)CC1
- inhibition in vivo at 20 mg/kg (Mus musculus [3]): 24%

Compound: O=C(CCCC(=O)N1CC[N+]2(CCCC2)CC1)N1CC[N+]2(CCCC2)CC1.[Br-].[Br-]
- inhibition in vivo at 2 mg/kg (Mus musculus [1]): 0%
- Death dose [4]: 20 mg/kg
- inhibition in vivo at 2 mg/kg (Mus musculus [2]): 67.4%

Compound: O=C(CCCCC(=O)N1CC[N+]2(CCCC2)CC1)N1CC[N+]2(CCCC2)CC1.[Br-].[Br-]
- inhibition in vivo at 0.2 mg/kg (Mus musculus [5]): 8.1%
- Death dose [4]: 2 mg/kg
- inhibition in vivo at 0.2 mg/kg (Mus musculus [6]): 70.4%

Compound: C[N+]1(C)CCN(C(=O)CCCCC(=O)N2CC[N+](C)(C)CC2)CC1
- inhibition in vivo at 0.05 mg/kg (Mus musculus [7]): 60.1%

Compound: C(CN1CC[N+]2(CCCC2)CC1)CN1CC[N+]2(CCCC2)CC1
- inhibition in vivo at 10 mg/kg (Mus musculus [8]): 96%
- inhibition in vivo at 10 mg/kg (Mus musculus [9]): 4.7%
- inhibition in vivo at 5 mg/kg (Mus musculus [10]): 0%
- inhibition in vivo at 5 mg/kg (Mus musculus [11]): 45.5%

Compound: CCCCCCOC(CN1CC[N+]2(CCCC2)CC1)CN1CC[N+]2(CCCC2)CC1
- inhibition in vivo at 20 mg/kg (Mus musculus [12]): 100%
- inhibition in vivo at 10 mg/kg (Mus musculus [8]): 91%
- inhibition in vivo at […] (Mus musculus [13]): 49%
- inhibition in vivo at 5 mg/kg (Mus musculus [11]): 61%

Compound: C(CCCCN1CC[N+]2(CCCC2)CC1)CCCN1CC[N+]2(CCCC2)CC1
- inhibition in vivo at 2 mg/kg (Mus musculus [1]): 0%
- inhibition in vivo at 2 mg/kg (Mus musculus [2]): 98.6%

Compound: O=C(CC(=O)N1CC[N+]2(CCCC2)CC1)N1CC[N+]2(CCCC2)CC1.[Br-].[Br-]
- inhibition in vivo at 2 mg/kg (Mus musculus [1]): 0%
- Death dose [4]: 40 mg/kg
- inhibition in vivo at 2 mg/kg (Mus musculus [2]): 0%

Compound: O=C(CCC(=O)N1CC[N+]2(CCCC2)CC1)N1CC[N+]2(CCCC2)CC1.[Br-].[Br-]
- inhibition in vivo at 2 mg/kg (Mus musculus [1]): 0%
- Death dose [4]: 20 mg/kg
- inhibition in vivo at 2 mg/kg (Mus musculus [2]): 47.7%

Compound: O=C(CCCCC(=O)N1CCNCC1)N1CCNCC1
- inhibition in vivo at 5 mg/kg (Mus musculus [11]): 34.5%

Compound: CCOC(CN1CC[N+]2(CCCC2)CC1)CN1CC[N+]2(CCCC2)CC1
- inhibition in vivo at 20 mg/kg (Mus musculus [12]): 90%
- inhibition in vivo at 10 mg/kg (Mus musculus [8]): 46%
- inhibition in vivo at 5 mg/kg (Mus musculus [11]): 34%

Compound: O=C(CCCCCCC(=O)N1CC[N+]2(CCCC2)CC1)N1CC[N+]2(CCCC2)CC1.[Br-].[Br-]
- inhibition in vivo at 0.02 mg/kg (Mus musculus [14]): 27.5%
- Death dose [4]: 0.2 mg/kg
- inhibition in vivo at 0.02 mg/kg (Mus musculus [15]): 0%

Compound: C(CCCCCN1CC[N+]2(CCCC2)CC1)CCCCN1CC[N+]2(CCCC2)CC1
- inhibition in vivo at 2 mg/kg (Mus musculus [1]): 0%
- inhibition in vivo at 2 mg/kg (Mus musculus [2]): 84.6%

Compound: O=C(CCCCCC(=O)N1CC[N+]2(CCCC2)CC1)N1CC[N+]2(CCCC2)CC1.[Br-].[Br-]
- inhibition in vivo at 0.02 mg/kg (Mus musculus [14]): 0%
- Death dose [4]: 0.2 mg/kg
- inhibition in vivo at 0.02 mg/kg (Mus musculus [15]): 0%

Compound: CCCCCCCCCCCCOC(CN1CC[N+]2(CCCC2)CC1)CN1CC[N+]2(CCCC2)CC1
- inhibition in vivo at 20 mg/kg (Mus musculus [12]): 18%

Compound: CN1CCN(C(=O)CCCCC(=O)N2CCN(C)CC2)CC1
- inhibition in vivo at 10 mg/kg (Mus musculus [8]): 10.9%
